{"source": "patent US8952024B2", "about": "“Herbicidal pyrimidone derivatives” (E I du Pont de Nemours and Company, priority 2009, dated 2015)", "format_in_all_cases": "in vivo", "key": {"[1]": {"test_system": "barnyardgrass (Echinochloa crus-galli)", "assay": "Test A pre-/postemergence plant response", "outline": "(§1)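 Injury was scored visually after roughly ten days against untreated controls, 0 = no effect, 100 = complete control. Test chemicals in a surfactant-containing non-phytotoxic solvent were sprayed either onto soil preemergence or onto one- to two-leaf, 2–10 cm plants postemergence.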"}, "[2]": {"test_system": "corn (Zea mays)", "assay": "Test A pre-/postemergence plant response", "outline": "as §1"}, "[3]": {"test_system": "giant foxtail (Setaria faberii)", "assay": "Test A pre-/postemergence plant response", "outline": "as §1"}, "[4]": {"test_system": "large crabgrass (Digitaria sanguinalis)", "assay": "Test A pre-/postemergence plant response", "outline": "as §1"}, "[5]": {"test_system": "morningglory (Ipomoea spp.)", "assay": "Test A pre-/postemergence plant response", "outline": "as §1"}, "[6]": {"test_system": "pigweed (Amaranthus retroflexus)", "assay": "Test A pre-/postemergence plant response", "outline": "as §1"}, "[7]": {"test_system": "velvetleaf (Abutilon theophrasti)", "assay": "Test A pre-/postemergence plant response", "outline": "as §1"}, "[8]": {"test_system": "wheat (Triticum aestivum)", "assay": "Test A pre-/postemergence plant response", "outline": "as §1"}, "[9]": {"test_system": "canarygrass (Phalaris minor)", "assay": "Test B postemergence plant response", "conditions": "Postemergence; for Canarygrass plant response rating: 250 g ai/ha, scale 0 to 100", "outline": "(§2)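 Visual ratings from 0 (no effect) to 100 (complete control), made against controls 13–15 days after treatment, kept in a greenhouse. Compounds were applied postemergence to potted plants at the 1- to 4-leaf stage (2–18 cm).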"}, "[10]": {"test_system": "chickweed (Stellaria media)", "assay": "Test B postemergence plant response", "conditions": "Postemergence; for Chickweed plant response rating: 250 g ai/ha, scale 0 to 100", "outline": "as §2"}, "[11]": {"test_system": "windgrass (Apera spica-venti)", "assay": "Test B postemergence plant response", "conditions": "Postemergence, scale 0 (no effect) to 100 (complete control)", "outline": "as §2"}, "[12]": {"test_system": "winter barley (Hordeum vulgare)", "assay": "Test B postemergence plant response", "conditions": "Postemergence; for Barley plant response rating: 250 g ai/ha, scale 0 to 100", "outline": "as §2"}, "[13]": {"conditions": "Postemergence, 125 g ai/ha, visual injury, 0 to 100 scale (0 no effect, 100 complete control), approx. ten days"}, "[14]": {"conditions": "Postemergence, 500 g ai/ha, 0 to 100 scale, 0 = no effect, 100 = complete control, approx. ten days"}, "[15]": {"conditions": "Preemergence, 125 g ai/ha, 0 to 100 scale, 0 = no effect, 100 = complete control"}, "[16]": {"conditions": "Preemergence, 500 g ai/ha, visual injury, 0 to 100 scale (0 no effect, 100 complete control), approx. ten days"}, "[17]": {"conditions": "31 g ai/ha, scale 0 to 100 (0 no effect, 100 complete control)"}, "[18]": {"conditions": "62 g ai/ha, scale 0 (no effect) to 100 (complete control), 13 to 15 days"}, "[19]": {"conditions": "125 g ai/ha, visual rating after 13 to 15 days, scale 0 (no effect) to 100 (complete control)"}, "[20]": {"conditions": "125 g ai/ha, visual rating after 13 to 15 days"}}}
{"smiles": "CCCCc1ncc(C(=O)C2=C(O)CCCC2=O)c(=O)n1-c1ccccc1", "note": "[Compound 42]", "values": [{"measurement": "Barnyardgrass plant response rating", "setting": "[1]; [13]", "result": 60}, {"measurement": "Plant response rating, Barnyardgrass", "setting": "[1]; [14]", "result": 90}, {"measurement": "Plant response rating, Barnyardgrass", "setting": "[1]; [15]", "result": 0}, {"measurement": "Plant response rating, Barnyardgrass", "setting": "[1]; [16]", "result": 60}, {"measurement": "Corn plant response rating", "setting": "[2]; [13]", "result": 0}, {"measurement": "Plant response rating, Corn", "setting": "[2]; [14]", "result": 30}, {"measurement": "Plant response rating, Corn", "setting": "[2]; [15]", "result": 0}, {"measurement": "Plant response rating, Corn", "setting": "[2]; [16]", "result": 0}, {"measurement": "Foxtail, Giant plant response rating", "setting": "[3]; [13]", "result": 40}, {"measurement": "Plant response rating, Foxtail, Giant", "setting": "[3]; [14]", "result": 70}, {"measurement": "Plant response rating, Foxtail, Giant", "setting": "[3]; [15]", "result": 10}, {"measurement": "Plant response rating, Foxtail, Giant", "setting": "[3]; [16]", "result": 40}, {"measurement": "Crabgrass, Large plant response rating", "setting": "[4]; [13]", "result": 60}, {"measurement": "Plant response rating, Crabgrass, Large", "setting": "[4]; [14]", "result": 80}, {"measurement": "Plant response rating, Crabgrass, Large", "setting": "[4]; [15]", "result": 40}, {"measurement": "Plant response rating, Crabgrass, Large", "setting": "[4]; [16]", "result": 90}, {"measurement": "Morningglory plant response rating", "setting": "[5]; [13]", "result": 80}, {"measurement": "Plant response rating, Morningglory", "setting": "[5]; [14]", "result": 80}, {"measurement": "Plant response rating, Morningglory", "setting": "[5]; [15]", "result": 0}, {"measurement": "Plant response rating, Morningglory", "setting": "[5]; [16]", "result": 50}, {"measurement": "Pigweed plant response rating", "setting": "[6]; [13]", "result": 100}, {"measurement": "Plant response rating, Pigweed", "setting": "[6]; [14]", "result": 100}, {"measurement": "Plant response rating, Pigweed", "setting": "[6]; [15]", "result": 90}, {"measurement": "Plant response rating, Pigweed", "setting": "[6]; [16]", "result": 100}, {"measurement": "Velvetleaf plant response rating", "setting": "[7]; [13]", "result": 100}, {"measurement": "Plant response rating, Velvetleaf", "setting": "[7]; [14]", "result": 100}, {"measurement": "Plant response rating, Velvetleaf", "setting": "[7]; [15]", "result": 70}, {"measurement": "Plant response rating, Velvetleaf", "setting": "[7]; [16]", "result": 100}, {"measurement": "Wheat plant response rating", "setting": "[8]; [13]", "result": 0}, {"measurement": "Plant response rating, Wheat", "setting": "[8]; [14]", "result": 0}, {"measurement": "Plant response rating, Wheat", "setting": "[8]; [15]", "result": 0}, {"measurement": "Plant response rating, Wheat", "setting": "[8]; [16]", "result": 0}, {"measurement": "Plant response rating, Canarygrass", "setting": "[9]; [17]", "result": 0}, {"measurement": "Plant response rating, Canarygrass", "setting": "[9]; [18]", "result": 0}, {"measurement": "Plant response rating, Canarygrass", "setting": "[9]; [19]", "result": 0}, {"measurement": "Canarygrass plant response rating", "setting": "[9]", "result": 0}, {"measurement": "Plant response rating, Chickweed", "setting": "[10]; [17]", "result": 60}, {"measurement": "Plant response rating, Chickweed", "setting": "[10]; [18]", "result": 70}, {"measurement": "Plant response rating, Chickweed", "setting": "[10]; [19]", "result": 80}, {"measurement": "Chickweed plant response rating", "setting": "[10]", "result": 95}, {"measurement": "Plant response rating, Windgrass", "setting": "[11]; 62 g ai/ha, 13 to 15 days", "result": 60}, {"measurement": "Plant response rating, Windgrass", "setting": "[11]; [20]", "result": 70}, {"measurement": "Plant response rating, Barley", "setting": "[12]; [17]", "result": 0}, {"measurement": "Plant response rating, Barley", "setting": "[12]; [18]", "result": 0}, {"measurement": "Plant response rating, Barley", "setting": "[12]; [19]", "result": 0}, {"measurement": "Barley plant response rating", "setting": "[12]", "result": 5}]}
{"smiles": "Cc1ccc(F)cc1-n1c(-c2ccccc2)ncc(C(=O)C2=C(O)CCCC2=O)c1=O", "note": "[Compound 44]", "values": [{"measurement": "Barnyardgrass plant response rating", "setting": "[1]; [13]", "result": 90}, {"measurement": "Plant response rating, Barnyardgrass", "setting": "[1]; [14]", "result": 100}, {"measurement": "Plant response rating, Barnyardgrass", "setting": "[1]; [15]", "result": 30}, {"measurement": "Plant response rating, Barnyardgrass", "setting": "[1]; [16]", "result": 100}, {"measurement": "Corn plant response rating", "setting": "[2]; [13]", "result": 0}, {"measurement": "Plant response rating, Corn", "setting": "[2]; [14]", "result": 40}, {"measurement": "Plant response rating, Corn", "setting": "[2]; [15]", "result": 0}, {"measurement": "Plant response rating, Corn", "setting": "[2]; [16]", "result": 0}, {"measurement": "Foxtail, Giant plant response rating", "setting": "[3]; [13]", "result": 80}, {"measurement": "Plant response rating, Foxtail, Giant", "setting": "[3]; [14]", "result": 90}, {"measurement": "Plant response rating, Foxtail, Giant", "setting": "[3]; [15]", "result": 30}, {"measurement": "Plant response rating, Foxtail, Giant", "setting": "[3]; [16]", "result": 90}, {"measurement": "Crabgrass, Large plant response rating", "setting": "[4]; [13]", "result": 80}, {"measurement": "Plant response rating, Crabgrass, Large", "setting": "[4]; [14]", "result": 90}, {"measurement": "Plant response rating, Crabgrass, Large", "setting": "[4]; [15]", "result": 80}, {"measurement": "Plant response rating, Crabgrass, Large", "setting": "[4]; [16]", "result": 90}, {"measurement": "Morningglory plant response rating", "setting": "[5]; [13]", "result": 80}, {"measurement": "Plant response rating, Morningglory", "setting": "[5]; [14]", "result": 90}, {"measurement": "Plant response rating, Morningglory", "setting": "[5]; [15]", "result": 20}, {"measurement": "Plant response rating, Morningglory", "setting": "[5]; [16]", "result": 70}, {"measurement": "Pigweed plant response rating", "setting": "[6]; [13]", "result": 100}, {"measurement": "Plant response rating, Pigweed", "setting": "[6]; [14]", "result": 100}, {"measurement": "Plant response rating, Pigweed", "setting": "[6]; [15]", "result": 60}, {"measurement": "Plant response rating, Pigweed", "setting": "[6]; [16]", "result": 90}, {"measurement": "Velvetleaf plant response rating", "setting": "[7]; [13]", "result": 100}, {"measurement": "Plant response rating, Velvetleaf", "setting": "[7]; [14]", "result": 100}, {"measurement": "Plant response rating, Velvetleaf", "setting": "[7]; [15]", "result": 70}, {"measurement": "Plant response rating, Velvetleaf", "setting": "[7]; [16]", "result": 100}, {"measurement": "Wheat plant response rating", "setting": "[8]; [13]", "result": 0}, {"measurement": "Plant response rating, Wheat", "setting": "[8]; [14]", "result": 20}, {"measurement": "Plant response rating, Wheat", "setting": "[8]; [15]", "result": 0}, {"measurement": "Plant response rating, Wheat", "setting": "[8]; [16]", "result": 0}, {"measurement": "Plant response rating, Canarygrass", "setting": "[9]; [17]", "result": 20}, {"measurement": "Plant response rating, Canarygrass", "setting": "[9]; [18]", "result": 20}, {"measurement": "Plant response rating, Canarygrass", "setting": "[9]; [19]", "result": 30}, {"measurement": "Canarygrass plant response rating", "setting": "[9]", "result": 40}, {"measurement": "Plant response rating, Chickweed", "setting": "[10]; [17]", "result": 90}, {"measurement": "Plant response rating, Chickweed", "setting": "[10]; [18]", "result": 95}, {"measurement": "Plant response rating, Chickweed", "setting": "[10]; [19]", "result": 98}, {"measurement": "Chickweed plant response rating", "setting": "[10]", "result": 100}, {"measurement": "Plant response rating, Windgrass", "setting": "[11]; 62 g ai/ha, 13 to 15 days", "result": 70}, {"measurement": "Plant response rating, Windgrass", "setting": "[11]; [20]", "result": 85}, {"measurement": "Plant response rating, Barley", "setting": "[12]; [17]", "result": 0}, {"measurement": "Plant response rating, Barley", "setting": "[12]; [18]", "result": 0}, {"measurement": "Plant response rating, Barley", "setting": "[12]; [19]", "result": 5}, {"measurement": "Barley plant response rating", "setting": "[12]", "result": 15}]}
